Assay results: patent publication EP0633893B1, “17-SUBSTITUTED STEROIDS USEFUL IN CANCER TREATMENT” (priority 1992, dated 1993)
pIC50: −log10 of the molar value. Where two headings read alike, the source gives them in different places.

How the values were obtained:
testosterone = experiment: In vivo endocrine test in mice: RIA of plasma testosterone; details: 2 weeks, plasma 24 hours after last injection, mean ± standard error
Procedure: Male HWT mice, 12 weeks old, were treated daily for 2 weeks, with 5 animals per treatment group. […] The test compounds were made up in 5% benzyl alcohol, 95% safflower oil, and were given i.p.. In addition to an untreated control group of animals, there was also a solvent control group which received the same volume of liquid as the test group (5ml/kg) but no test compound. All animals were sacrificed 24 hours after the last injection. Blood was collected by cardiac puncture into heparinized tubes, and the plasma used for RIA (radio immunoassay) of testosterone and luteinising hormone.

Male HWT mice [1] = format: in vivo; details: daily for 2 weeks, mean ± standard error
Procedure: (§1) Male HWT mice, 12 weeks old, were treated daily for 2 weeks, with 5 animals per treatment group. The test compounds were the compound of Examples 1 and 4 (as representative of compounds of the invention having the pregenolone-like and progesterone-like skeletons respectively). Ketoconazole was also tested at three different doses. The test compounds were made up in 5% benzyl alcohol, 95% safflower oil, and were given i.p.. In addition to an untreated control group of animals, there was also a solvent control group which received the same volume of liquid as the test group (5ml/kg) but no test compound. All animals were sacrificed 24 hours after the last injection. Blood was collected by cardiac puncture into heparinized tubes, and the plasma used for RIA (radio immunoassay) of testosterone and luteinising hormone. The following organs were removed and weighed: adrenals, prostate, seminal vesicles, testes, kidneys. There was no significant body weight loss in any group of mice during the experiments.

aromatase = target: T1, aromatase (Homo sapiens, UniProt P11511); experiment: biochemical
T1 sequence (P11511 1-503): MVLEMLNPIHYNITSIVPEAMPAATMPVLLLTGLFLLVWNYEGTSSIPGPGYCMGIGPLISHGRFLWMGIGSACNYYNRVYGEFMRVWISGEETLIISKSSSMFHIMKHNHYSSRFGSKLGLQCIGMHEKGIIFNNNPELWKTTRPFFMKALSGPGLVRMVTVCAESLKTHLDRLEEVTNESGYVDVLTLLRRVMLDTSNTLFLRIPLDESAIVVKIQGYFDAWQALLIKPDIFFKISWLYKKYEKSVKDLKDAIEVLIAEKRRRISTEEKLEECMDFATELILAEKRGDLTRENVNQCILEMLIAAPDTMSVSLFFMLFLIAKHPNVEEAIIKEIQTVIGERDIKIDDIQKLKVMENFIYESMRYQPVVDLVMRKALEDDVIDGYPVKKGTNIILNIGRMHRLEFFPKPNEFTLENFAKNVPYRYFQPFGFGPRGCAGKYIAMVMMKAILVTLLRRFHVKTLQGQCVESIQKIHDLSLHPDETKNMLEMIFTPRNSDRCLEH
Procedure: Aromatase activity was determined by the method of A. B. Foster et al., J. Med. Chem. 26, 50-54 (1983), using human placental microsomes.

luteinising hormone = experiment: In vivo endocrine test in mice: RIA of plasma luteinising hormone; details: 2 weeks, plasma 24 hours after last injection, mean ± standard error
Procedure: as §1

Male HWT mice [2] = details: mouse, in vivo; for Post mortem examination: appearance of organs / Post mortem examination: deposits: ip
Procedure: as §1
In Ketoconazole-treated animals, adhesions were found in 2/5,2/5,4/5 of the low/middle/top dose groups. […] The livers were brown in the middle/top dose groups.

17α-hydroxylase = target: T2, 17α-hydroxylase (Homo sapiens, UniProt P05093); experiment: Determination of 17α-hydroxylase (human testicular microsomes, 3H-progesterone substrate, HPLC); format: biochemical
T2 construct: The microsomal pellet was then resuspended in 50mM sodium phosphate pH 7.4/glycerol (3/1 v/v) and stored in aliquots in liquid nitrogen; from tissue; host or cells: human testis microsomes
T2 sequence (P05093 1-508): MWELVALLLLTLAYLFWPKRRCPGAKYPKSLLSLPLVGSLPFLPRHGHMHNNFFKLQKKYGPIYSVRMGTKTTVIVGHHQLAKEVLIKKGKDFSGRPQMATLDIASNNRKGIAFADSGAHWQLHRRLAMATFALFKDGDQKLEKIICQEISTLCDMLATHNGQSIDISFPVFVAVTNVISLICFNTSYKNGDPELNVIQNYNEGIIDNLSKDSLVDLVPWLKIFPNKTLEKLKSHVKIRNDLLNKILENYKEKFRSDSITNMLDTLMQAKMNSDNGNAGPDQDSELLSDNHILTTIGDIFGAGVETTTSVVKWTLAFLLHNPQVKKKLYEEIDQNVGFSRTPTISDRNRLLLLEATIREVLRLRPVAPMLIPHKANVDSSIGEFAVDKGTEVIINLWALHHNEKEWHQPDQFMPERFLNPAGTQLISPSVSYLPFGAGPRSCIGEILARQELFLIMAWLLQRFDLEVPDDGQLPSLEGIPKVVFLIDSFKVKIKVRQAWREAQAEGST
Procedure: Human testes were obtained from previously untreated patients undergoing orchidectomy for prostatic cancer. The testes were decapsulated and stored in liquid nitrogen until use. A microsomal preparation was prepared essentially as described by S. E. Barrie et al., J. Steroid Biochem. 6, 1191-5, (1989). The material was then thawed, finely chopped, and homogenised in 0.25M sucrose (5ml/g wet weight) using a Potter homogeniser. The homogenate was centrifuged at 12000g for 30 min, and then the microsomes were pelleted by spinning the supernatant at 100,000g for lhr. The pellet was washed by being resuspended in 0.25M sucrose and repelleted. The microsomal pellet was then resuspended in 50mM sodium phosphate pH 7.4/glycerol (3/1 v/v) and stored in aliquots in liquid nitrogen.
The basic assay mixture was EDTA (0.2mM), dithiothreitol (DTT; 0.1mM), NADPH (0.25mM), glucose 6-phosphate dehydrogenase (G6PDH; 6.25 µg/ml), MgCl2 (1mM), glucose 6-phosphate (G6P; 10mM) and the substrate, ^3H-progesterone (3µM) in sodium phosphate (50mm), pH 7.4. The compounds under test were dissolved in 50% DMSO and the final concentrations of ethanol and DMSO were 1% each. The assay reaction was carried out for 1 hour and was terminated by the addition of 2 vols. of methanol-acetonitrile (2:1) containing approx. 100µM unlabelled progesterone, 17α-hydroxyprogesterone, androstenedione, testosterone, and 16α-hydroxyprogesterone.
The separation of the steroids by HPLC was carried out using an "Uptight" guard column packed with 40-63µm Nucleosil C18 and a 10cm main column packed with 5µm Nucleosil C18 and 60% methanol as eluant. The radioactivity in the peaks of interest was monitored on-line by mixing the HPLC effluent 1:1 with Ecoscint A (National Diagnostics) scintillation fluid, containing 25% acetonitrile, and passing the mixture through a Berthold LB506C radiochemical monitor. The hydroxylase activity was measured as the production of 17α-hydroxyprogesterone, androstenedione and testosterone.
The enzyme activity was measured in the presence of at least 4 concentrations of each compound.

C17-C20 lyase = target: T3, C17-C20 lyase (Homo sapiens, UniProt P05093); experiment: Determination of C17-C20 lyase (human testicular microsomes, 3H-17α-hydroxyprogesterone substrate, HPLC); format: biochemical; details: for IC50: read-out: IC50 (µM) Lyase
T3 construct: The microsomal pellet was then resuspended in 50mM sodium phosphate pH 7.4/glycerol (3/1 v/v) and stored in aliquots in liquid nitrogen; from tissue; host or cells: human testis microsomes
T3 sequence (P05093 1-508): T2 sequence (P05093 1-508)
Procedure: Human testes were obtained from previously untreated patients undergoing orchidectomy for prostatic cancer. The testes were decapsulated and stored in liquid nitrogen until use. […] The material was then thawed, finely chopped, and homogenised in 0.25M sucrose (5ml/g wet weight) using a Potter homogeniser. The homogenate was centrifuged at 12000g for 30 min, and then the microsomes were pelleted by spinning the supernatant at 100,000g for lhr. The pellet was washed by being resuspended in 0.25M sucrose and repelleted. The microsomal pellet was then resuspended in 50mM sodium phosphate pH 7.4/glycerol (3/1 v/v) and stored in aliquots in liquid nitrogen.
The mixture was the same as described above for the 17«-hydroxylase except that the substrate was ^3H-17α-hydroxyprogesterone.
The HPLC separation used for the lyase involved a mini-re-column "Uptight Guard Column" packed with PELL-ODS (pellicular octadecyl silica) and a 10cm. main column "Apex C18" column packed with 5µ APEX-CAT silica. The eluant was 38:12:50 methanol:acetonitrile:water flowing at lml/min. The effluent was mixed 1:1 with Ecoscint A containing 5% methanol and 5% acetonitrile and the radioactivity was measured directly by a Berthold LB506C radiochemical detector. The lyase activity was measured as the production of androstenedione and testosterone.
The enzyme activity was measured in the presence of at least 4 concentrations of each compound. The data were for the 4-pyridyl and 2-picolyl compounds of Table 1 fitted by linear regression to the Dixon equation (M. Dixon, E.C. Webb, Enzymes, 2nd ed., Academic Press, New York, 1964). Data for all the other compounds were fitted by non-linear regression to the median effect equation of Chou, J. Theoret.

[3] = approx. 4nM enzyme, read-out: IC50 (µM) Hydroxylase
[4] = 10nM hydroxylase, read-out: IC50 (µM) Hydroylase

CC(=O)O[C@H]1CC[C@@]2(C)C(=CC[C@@H]3[C@@H]2CC[C@]2(C)C(c4cccnc4)=CC[C@@H]32)C1 [Ex. 1, 3β-Acetoxy-17-(3-pyridyl)androsta-5,16-diene]
Testosterone (testosterone; 0.02Mmol/Kg/Day i.p.): 2.7 ± 0.5 nM | Testosterone (testosterone; 0.5Mmol/Kg/Day i.p.): 0.1 ± 0.0 nM | Testosterone (testosterone; i.p.): 0.2 ± 0.1 nM | Mean weight Kidneys (Male HWT mice [1]; 0.02 mmol/kg/day i.p.): 604 ± 24 mg | Mean weight Prostate (Male HWT mice [1]; 0.02 mmol/kg/day i.p.): 8.0 ± 0.6 mg | Mean weight Seminal Vesicles (Male HWT mice [1]; 0.02 mmol/kg/day i.p.): 136 ± 4 mg | Mean weight Testes (Male HWT mice [1]; 0.02 mmol/kg/day i.p.): 134 ± 4 mg | Mean weight Kidneys (Male HWT mice [1]; 0.1 mmol/kg/day i.p.): 500 ± 8 mg | Mean weight Prostate (Male HWT mice [1]; 0.1 mmol/kg/day i.p.): 5.3 ± 0.3 mg | Mean weight Seminal Vesicles (Male HWT mice [1]; 0.1 mmol/kg/day i.p.): 51 ± 6 mg | Mean weight Testes (Male HWT mice [1]; 0.1 mmol/kg/day i.p.): 95 ± 3 mg | Mean weight Kidneys (Male HWT mice [1]; 0.5 mmol/kg/day i.p.): 449 ± 12 mg | Mean weight Prostate (Male HWT mice [1]; 0.5 mmol/kg/day i.p.): 5.6 ± 0.6 mg | Mean weight Seminal Vesicles (Male HWT mice [1]; 0.5 mmol/kg/day i.p.): 25 ± 2 mg | Mean weight Testes (Male HWT mice [1]; 0.5 mmol/kg/day i.p.): 56 ± 2 mg | pIC50 (aromatase): < 4.70 | LH (luteinising hormone; 0.02Mmol/Kg/Day i.p.): 3.4 ± 0.5 ng/mL | LH (luteinising hormone; 0.1Mmol/Kg/Day i.p.): 2.55 ± 0.45 ng/mL | LH (luteinising hormone; 0.5Mmol/Kg/Day i.p.): 2.25 ± 0.67 ng/mL | Post mortem examination: appearance of organs (Male HWT mice [2]): all organs looked normal | Post mortem examination: deposits (Male HWT mice [2]): oil/white deposits i.p.

C[C@]12CC[C@H](O)CC1=CC[C@@H]1[C@@H]2CC[C@]2(C)C(c3cccnc3)=CC[C@@H]12 [Ex. 2, 17-(3-Pyridyl)androsta-5,16-dien-3β-ol]
IC50 (17α-hydroxylase; [3]): 0.004 µM | IC50 (C17-C20 lyase; approx. 4nM enzyme): 0.0029 µM

C[C@]12CCC=CC1=CC[C@@H]1[C@@H]2CC[C@]2(C)C(c3cccnc3)=CC[C@@H]12 [Ex. 3, 17-(3-Pyridyl)androsta-3,5,16-triene]
IC50 (17α-hydroxylase; [3]): 0.0125 µM | IC50 (C17-C20 lyase; approx. 4nM enzyme): 0.0056 µM

C[C@]12CCC(=O)C=C1CC[C@@H]1[C@@H]2CC[C@]2(C)C(c3cccnc3)=CC[C@@H]12 [Ex. 4, 17-(3-Pyridyl)androsta-4,16-dien-3-one]
IC50 (17α-hydroxylase; [3]): 0.0028 µM | IC50 (C17-C20 lyase; approx. 4nM enzyme): 0.0021 µM | Testosterone (testosterone; 0.02Mmol/Kg/Day i.p.): 4.5 ± 0.3 nM | Testosterone (testosterone; 0.5Mmol/Kg/Day i.p.): 0.4 ± 0.1 nM | Testosterone (testosterone; i.p.): 3.5 ± 1.0 nM | Mean weight Kidneys (Male HWT mice [1]; 0.02 mmol/kg/day i.p.): 599 ± 29 mg | Mean weight Prostate (Male HWT mice [1]; 0.02 mmol/kg/day i.p.): 5.9 ± 0.8 mg | Mean weight Seminal Vesicles (Male HWT mice [1]; 0.02 mmol/kg/day i.p.): 108 ± 4 mg | Mean weight Testes (Male HWT mice [1]; 0.02 mmol/kg/day i.p.): 117 ± 9 mg | Mean weight Kidneys (Male HWT mice [1]; 0.1 mmol/kg/day i.p.): 549 ± 28 mg | Mean weight Prostate (Male HWT mice [1]; 0.1 mmol/kg/day i.p.): 6.4 ± 0.5 mg | Mean weight Seminal Vesicles (Male HWT mice [1]; 0.1 mmol/kg/day i.p.): 61 ± 9 mg | Mean weight Testes (Male HWT mice [1]; 0.1 mmol/kg/day i.p.): 105 ± 5 mg | Mean weight Kidneys (Male HWT mice [1]; 0.5 mmol/kg/day i.p.): 468 ± 15 mg | Mean weight Prostate (Male HWT mice [1]; 0.5 mmol/kg/day i.p.): 4.1 ± 0.5 mg | Mean weight Seminal Vesicles (Male HWT mice [1]; 0.5 mmol/kg/day i.p.): 25 ± 1 mg | Mean weight Testes (Male HWT mice [1]; 0.5 mmol/kg/day i.p.): 59 ± 2 mg | pIC50 (aromatase): 6.00 | Post mortem examination: appearance of organs (Male HWT mice [2]): all organs looked normal | Post mortem examination: deposits (Male HWT mice [2]): white deposits throughout the abdomen

C[C@]12CC[C@@H]3c4ccc(O)cc4CC[C@H]3[C@@H]1CC=C2c1cccnc1 [Ex. 6, 17-(3-Pyridyl)estra-1,3,5[10],16-tetraen-3-ol]
IC50 (17α-hydroxylase; [3]): 0.0026 µM | IC50 (C17-C20 lyase; approx. 4nM enzyme): 0.0018 µM

C[C@]12CC[C@@H](O)C[C@@H]1CC[C@@H]1[C@@H]2CC[C@]2(C)C(c3cccnc3)=CC[C@@H]12 [Ex. 8, 17-(3-Pyridyl)-5α-androst-16-en-3α-ol]
pIC50 (17α-hydroxylase): 8.37 | pIC50 (C17-C20 lyase): 8.60

C[C@]12CCC(=O)C[C@@H]1CC[C@@H]1[C@@H]2CC[C@]2(C)C(c3cccnc3)=CC[C@@H]12 [Ex. 9, 17-(3-Pyridyl)-5α-androst-16-en-3-one]
pIC50 (C17-C20 lyase): 8.52

C[C@]12CCC(=O)C=C1CC[C@@H]1[C@@H]2C(=O)C[C@]2(C)C(c3cccnc3)=CC[C@@H]12 [Ex. 10, 17-(3-Pyridyl)androsta-4,16-diene-3,11-dione]
IC50 (17α-hydroxylase; [3]): 0.0091 µM | IC50 (C17-C20 lyase; approx. 4nM enzyme): 0.0025 µM

C[C@]12CCC(=O)C=C1[C@H](F)C[C@@H]1[C@@H]2CC[C@]2(C)C(c3cccnc3)=CC[C@@H]12 [Ex. 12, 6β-Fluoro-17-(3-pyridyl)androsta-4,16-dien-3-one]
IC50 (17α-hydroxylase; [3]): 0.0033 µM | IC50 (C17-C20 lyase; approx. 4nM enzyme): 0.0022 µM

C[C@]12CCC(=O)C=C1[C@@H](F)C[C@@H]1[C@@H]2CC[C@]2(C)C(c3cccnc3)=CC[C@@H]12 [Ex. 13, 6α-Fluoro-17-(3-pyridyl)androsta-4,16-dien-3-one]
IC50 (17α-hydroxylase; [3]): 0.0053 µM | IC50 (C17-C20 lyase; approx. 4nM enzyme): 0.0032 µM

C[C@]12CC[C@H](O)CC1=CC[C@@H]1[C@@H]2CC[C@]2(C)C(c3ccccn3)=CC[C@@H]12 [Example 2-Pyridyl, reference compound]
pIC50 (17α-hydroxylase): 6.49 | pIC50 (C17-C20 lyase): 6.89

C[C@]12CC[C@H](O)CC1=CC[C@@H]1[C@@H]2CC[C@]2(C)C(Cc3ccccn3)=CC[C@@H]12 [Example 2-picolyl, reference compound]
IC50 (17α-hydroxylase; [4]): > 10 µM | IC50 (C17-C20 lyase; 25nM lyase): > 10 µM

C[C@]12CC[C@H](O)CC1=CC[C@@H]1[C@@H]2CC[C@]2(C)C(c3ccncc3)=CC[C@@H]12 [Example 4-pyridyl, reference compound]
IC50 (17α-hydroxylase; [4]): 5 µM | IC50 (C17-C20 lyase; 25nM lyase): 2 µM

CC(=O)N1CCN(c2ccc(OCC3COC(Cn4ccnc4)(c4ccc(Cl)cc4Cl)O3)cc2)CC1 (stereo not drawn) [Ketoconazole, reference compound]
Mean weight Kidneys (Male HWT mice [1]; 0.01mmol/kg/day i.p.): 637 ± 22 mg | Mean weight Prostate (Male HWT mice [1]; 0.01mmol/kg/day i.p.): 9.1 ± 0.8 mg | Mean weight Seminal Vesicles (Male HWT mice [1]; 0.01mmol/kg/day i.p.): 235 ± 18 mg | Mean weight Testes (Male HWT mice [1]; 0.01mmol/kg/day i.p.): 141 ± 5 mg | Mean weight Kidneys (Male HWT mice [1]; 0.225 mmol/kg/day i.p.): 574 ± 23 mg | Mean weight Prostate (Male HWT mice [1]; 0.225 mmol/kg/day i.p.): 10.8 ± 1.4 mg | Mean weight Seminal Vesicles (Male HWT mice [1]; 0.225 mmol/kg/day i.p.): 171 ± 5 mg | Mean weight Testes (Male HWT mice [1]; 0.225 mmol/kg/day i.p.): 127 ± 7 mg | Mean weight Kidneys (Male HWT mice [1]; 0.5 mmol/kg/day i.p.): 710 ± 30 mg | Mean weight Prostate (Male HWT mice [1]; 0.5 mmol/kg/day i.p.): 9.3 ± 0.9 mg | Mean weight Seminal Vesicles (Male HWT mice [1]; 0.5 mmol/kg/day i.p.): 179 ± 20 mg | Mean weight Testes (Male HWT mice [1]; 0.5 mmol/kg/day i.p.): 133 ± 6 mg | LH (luteinising hormone; 0.1Mmol/Kg/Day i.p.): 0.39 ± 0.14 ng/mL | LH (luteinising hormone; 0.225Mmol/Kg/Day i.p.): 0.75 ± 0.02 ng/mL | LH (luteinising hormone; 0.5Mmol/Kg/Day i.p.): 0.76 ± 0.03 ng/mL | Post mortem examination: livers (Male HWT mice [2]): brown
